Source: patent publication US8192962B2, “Processes for detecting toxic substances” (Daikin Industries, Ltd., priority 2001, dated 2012)

Tests used:
DNA repair protein genes = test: DNA chip mRNA expression in yeast, DNA repair protein genes (Table 3); assay type: cell-based, Saccharomyces cerevisiae S288C; conditions: incubated two hours, concentrations as in the 1st table
In short: (§1)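 First, S288C yeast grown in YPD at 25° C. are dosed in log phase with one toxicant (growth-inhibiting, not lethal) for 2 h. Next, total RNA is extracted and poly(A) mRNA isolated and reverse-transcribed with Cy3/Cy5-dUTP. Finally, whole-genome chip fluorescence is read relative to unexposed cells.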

[1] = tested on: Detoxification protein genes; test: DNA chip mRNA expression in yeast, detoxification protein genes (Table 8); assay type: cell-based, Saccharomyces cerevisiae S288C
In short: as §1

## O=[N+]([O-])c1cc[n+]([O-])c2ccccc12 [(5), 4-nitroquinolin-N-oxide]
DNA repair protein genes; yeast gene YAL015C
  The level of expressed mRNA in the presence of chemical substance/The level of expressed mRNA in the absence of chemical substance: 1.1
DNA repair protein genes; yeast gene YAR007C
  The level of expressed mRNA in the presence of chemical substance/The level of expressed mRNA in the absence of chemical substance: 1.5
DNA repair protein genes; yeast gene YBL019W
  The level of expressed mRNA in the presence of chemical substance/The level of expressed mRNA in the absence of chemical substance: 1.0
DNA repair protein genes; yeast gene YBR073W
  The level of expressed mRNA in the presence of chemical substance/The level of expressed mRNA in the absence of chemical substance: 1.2
DNA repair protein genes; yeast gene YBR272C
  The level of expressed mRNA in the presence of chemical substance/The level of expressed mRNA in the absence of chemical substance: 1.1
DNA repair protein genes; yeast gene YCR014C
  The level of expressed mRNA in the presence of chemical substance/The level of expressed mRNA in the absence of chemical substance: 1.2
DNA repair protein genes; yeast gene YDL017W
  The level of expressed mRNA in the presence of chemical substance/The level of expressed mRNA in the absence of chemical substance: 1.2
DNA repair protein genes; yeast gene YDL059C
  The level of expressed mRNA in the presence of chemical substance/The level of expressed mRNA in the absence of chemical substance: 1.2
DNA repair protein genes; yeast gene YDL200C
  The level of expressed mRNA in the presence of chemical substance/The level of expressed mRNA in the absence of chemical substance: 1.1
DNA repair protein genes; yeast gene YDR054C
  The level of expressed mRNA in the presence of chemical substance/The level of expressed mRNA in the absence of chemical substance: 0.7
DNA repair protein genes; yeast gene YDR369C
  The level of expressed mRNA in the presence of chemical substance/The level of expressed mRNA in the absence of chemical substance: 1.0
DNA repair protein genes; yeast gene YEL019C
  The level of expressed mRNA in the presence of chemical substance/The level of expressed mRNA in the absence of chemical substance: 0.9
DNA repair protein genes; yeast gene YEL037C
  The level of expressed mRNA in the presence of chemical substance/The level of expressed mRNA in the absence of chemical substance: 0.5
DNA repair protein genes; yeast gene YER162C
  The level of expressed mRNA in the presence of chemical substance/The level of expressed mRNA in the absence of chemical substance: 0.9
DNA repair protein genes; yeast gene YFL014W
  The level of expressed mRNA in the presence of chemical substance/The level of expressed mRNA in the absence of chemical substance: 1.0
DNA repair protein genes; yeast gene YGL058W
  The level of expressed mRNA in the presence of chemical substance/The level of expressed mRNA in the absence of chemical substance: 1.0
DNA repair protein genes; yeast gene YGL091C
  The level of expressed mRNA in the presence of chemical substance/The level of expressed mRNA in the absence of chemical substance: 0.8
DNA repair protein genes; yeast gene YGL127C
  The level of expressed mRNA in the presence of chemical substance/The level of expressed mRNA in the absence of chemical substance: 1.3
DNA repair protein genes; yeast gene YGL163C
  The level of expressed mRNA in the presence of chemical substance/The level of expressed mRNA in the absence of chemical substance: 1.5
DNA repair protein genes; yeast gene YGL249W
  The level of expressed mRNA in the presence of chemical substance/The level of expressed mRNA in the absence of chemical substance: 1.1
DNA repair protein genes; yeast gene YGR180C
  The level of expressed mRNA in the presence of chemical substance/The level of expressed mRNA in the absence of chemical substance: 2.0
DNA repair protein genes; yeast gene YGR231C
  The level of expressed mRNA in the presence of chemical substance/The level of expressed mRNA in the absence of chemical substance: 1.3
DNA repair protein genes; yeast gene YGR258C
  The level of expressed mRNA in the presence of chemical substance/The level of expressed mRNA in the absence of chemical substance: 1.5
DNA repair protein genes; yeast gene YHR164C
  The level of expressed mRNA in the presence of chemical substance/The level of expressed mRNA in the absence of chemical substance: 0.9
DNA repair protein genes; yeast gene YIL036W
  The level of expressed mRNA in the presence of chemical substance/The level of expressed mRNA in the absence of chemical substance: 0.9
DNA repair protein genes; yeast gene YIL072W
  The level of expressed mRNA in the presence of chemical substance/The level of expressed mRNA in the absence of chemical substance: 1.5
DNA repair protein genes; yeast gene YIL143C
  The level of expressed mRNA in the presence of chemical substance/The level of expressed mRNA in the absence of chemical substance: 0.8
DNA repair protein genes; yeast gene YIL153W
  The level of expressed mRNA in the presence of chemical substance/The level of expressed mRNA in the absence of chemical substance: 1.0
DNA repair protein genes; yeast gene YIR002C
  The level of expressed mRNA in the presence of chemical substance/The level of expressed mRNA in the absence of chemical substance: 1.2
DNA repair protein genes; yeast gene YJL026W
  The level of expressed mRNA in the presence of chemical substance/The level of expressed mRNA in the absence of chemical substance: 1.7
DNA repair protein genes; yeast gene YJR046W
  The level of expressed mRNA in the presence of chemical substance/The level of expressed mRNA in the absence of chemical substance: 0.8
DNA repair protein genes; yeast gene YJR052W
  The level of expressed mRNA in the presence of chemical substance/The level of expressed mRNA in the absence of chemical substance: 1.0
DNA repair protein genes; yeast gene YKL145W
  The level of expressed mRNA in the presence of chemical substance/The level of expressed mRNA in the absence of chemical substance: 1.4
DNA repair protein genes; yeast gene YLR103C
  The level of expressed mRNA in the presence of chemical substance/The level of expressed mRNA in the absence of chemical substance: 1.0
DNA repair protein genes; yeast gene YLR233C
  The level of expressed mRNA in the presence of chemical substance/The level of expressed mRNA in the absence of chemical substance: 1.2
DNA repair protein genes; yeast gene YLR288C
  The level of expressed mRNA in the presence of chemical substance/The level of expressed mRNA in the absence of chemical substance: 1.7
DNA repair protein genes; yeast gene YML032C
  The level of expressed mRNA in the presence of chemical substance/The level of expressed mRNA in the absence of chemical substance: 1.0
DNA repair protein genes; yeast gene YML058W
  The level of expressed mRNA in the presence of chemical substance/The level of expressed mRNA in the absence of chemical substance: 0.6
DNA repair protein genes; yeast gene YMR035W
  The level of expressed mRNA in the presence of chemical substance/The level of expressed mRNA in the absence of chemical substance: 0.8
DNA repair protein genes; yeast gene YMR072W
  The level of expressed mRNA in the presence of chemical substance/The level of expressed mRNA in the absence of chemical substance: 1.7
DNA repair protein genes; yeast gene YMR096W
  The level of expressed mRNA in the presence of chemical substance/The level of expressed mRNA in the absence of chemical substance: 1.0
DNA repair protein genes; yeast gene YMR284W
  The level of expressed mRNA in the presence of chemical substance/The level of expressed mRNA in the absence of chemical substance: 0.8
DNA repair protein genes; yeast gene YNL213C
  The level of expressed mRNA in the presence of chemical substance/The level of expressed mRNA in the absence of chemical substance: 1.3
DNA repair protein genes; yeast gene YNL250W
  The level of expressed mRNA in the presence of chemical substance/The level of expressed mRNA in the absence of chemical substance: 0.8
DNA repair protein genes; yeast gene YNL261W
  The level of expressed mRNA in the presence of chemical substance/The level of expressed mRNA in the absence of chemical substance: 0.7
DNA repair protein genes; yeast gene YNL312W
  The level of expressed mRNA in the presence of chemical substance/The level of expressed mRNA in the absence of chemical substance: 1.4
DNA repair protein genes; yeast gene YOL043C
  The level of expressed mRNA in the presence of chemical substance/The level of expressed mRNA in the absence of chemical substance: 1.2
DNA repair protein genes; yeast gene YOR005C
  The level of expressed mRNA in the presence of chemical substance/The level of expressed mRNA in the absence of chemical substance: 1.3
DNA repair protein genes; yeast gene YOR386W
  The level of expressed mRNA in the presence of chemical substance/The level of expressed mRNA in the absence of chemical substance: 1.2
DNA repair protein genes; yeast gene YPL022W
  The level of expressed mRNA in the presence of chemical substance/The level of expressed mRNA in the absence of chemical substance: 0.8
DNA repair protein genes; yeast gene YPL164C
  The level of expressed mRNA in the presence of chemical substance/The level of expressed mRNA in the absence of chemical substance: 1.2
DNA repair protein genes; yeast gene YPL194W
  The level of expressed mRNA in the presence of chemical substance/The level of expressed mRNA in the absence of chemical substance: 1.3
DNA repair protein genes; yeast gene YPR025C
  The level of expressed mRNA in the presence of chemical substance/The level of expressed mRNA in the absence of chemical substance: 1.6
[1]; yeast gene YBL064C
  The level of expressed mRNA in the presence of chemical substance/The level of expressed mRNA in the absence of chemical substance: 0.8
[1]; yeast gene YBR008C
  The level of expressed mRNA in the presence of chemical substance/The level of expressed mRNA in the absence of chemical substance: 0.9
[1]; yeast gene YBR145W
  The level of expressed mRNA in the presence of chemical substance/The level of expressed mRNA in the absence of chemical substance: 1.1
